One series has as its system HBV pgRNA. As to the kind of experiment: HBV pgRNA change from baseline after 4-week treatment course in chronically infected HBV patients. The format is in vivo, human. Particulars: 4 weeks. The method, then:
FIG. 1: HBV pgRNA (log 10 copies/mL) changes from baseline after a 4 week anti-HBV treatment course of FXR agonist EYP001a or placebo in combination with interferon in chronically infected previously untreated HBV patients. PBO: placebo. peg-IFN: pegylated interferon alpha2a. 150 BID: 150 mg twice daily. 300 QD: 300 mg once daily. pgRNA: pregenomic ribonucleic acid.
(§1) HBV chronically infected patients (male (n=39) and female (n=34)) underwent a 4-week treatment course as either daily oral FXR agonist EYP001a monotherapy or placebo or entecavir (ETV) in Part A of the study (n=48) or in combination with interferon (n=23, weekly sub-cutaneous injections of pegylated IFNα2a, PEG-IFN) in Part B. Patient characteristics were: mean age of 39.7 years (range: 19-63); 6 of 73 were HBeAg-positive; 70% treatment naïve; mean baselines HBV DNA 4.2 (±1.5 SD) log 10 IU/mL, HBsAg 3.5 (±0.8 SD) log 10 IU/mL, and genotypes A (25), B (8), C (10), D (7) and E (4).

For a further series, the system named is HBcrAg. The series is described as follows: HBcrAg change from baseline after 4-week treatment course in chronically infected HBV patients. Type of series: in vivo, human. To be noted: 4 weeks.
Text: PBO: placebo. peg-IFN: pegylated interferon alpha2a. HBcrAg: hepatitis B core-related antigen.
as §1

A further series concerns HBsAg. Type of series: in vivo, human. Particulars: 400 mg QD EYP001, end of treatment day 29, p<0.05.
Text: as §1

The next series concerns HBV replication. As to the kind of experiment: Synergistic effect of combined treatment on HBV replication markers (pgRNA and HBcrAg) in patients. The format is in vivo, human. Particulars: same dose, same period of 4 weeks, monotherapy.
Text: By “a synergistic effect” is intended to refer to an effect for decreasing the HBV replication which is more than the sum of the effects of each molecule alone. HBV replication can be assessed by determining surface HBV antigen (HBsAg), HBeAg, HBV core related antigen (HBcrAg), HBV DNA, HBV pre-genomic RNA, HBV pre-core RNA and/or HBV cccDNA. More particularly, the effect is observed on the pre-genomic RNA (HBV pgRNA) and/or on the hepatitis B core related antigen (HBcrAg).
as §1, with “(4). FXR engagement with all EYP001 doses led to decreases in C4 and increases in FGF19 (data not shown).” for “(4).”
At end of treatment on day 29, 400 mg QD EYP001 decrease the mean HBsAg by −0.1 log 10 IU/mL (p<0.05). […]

The target of the next series is T1, FXR (Homo sapiens, UniProt Q96RI1).
T1 construct: FXR engagement with all EYP001 doses led to decreases in C4 and increases in FGF19; from tissue; host or cells: endogenous FXR in the tissues of treated HBV patients (in vivo clinical study)
T1 sequence (Q96RI1 1-486): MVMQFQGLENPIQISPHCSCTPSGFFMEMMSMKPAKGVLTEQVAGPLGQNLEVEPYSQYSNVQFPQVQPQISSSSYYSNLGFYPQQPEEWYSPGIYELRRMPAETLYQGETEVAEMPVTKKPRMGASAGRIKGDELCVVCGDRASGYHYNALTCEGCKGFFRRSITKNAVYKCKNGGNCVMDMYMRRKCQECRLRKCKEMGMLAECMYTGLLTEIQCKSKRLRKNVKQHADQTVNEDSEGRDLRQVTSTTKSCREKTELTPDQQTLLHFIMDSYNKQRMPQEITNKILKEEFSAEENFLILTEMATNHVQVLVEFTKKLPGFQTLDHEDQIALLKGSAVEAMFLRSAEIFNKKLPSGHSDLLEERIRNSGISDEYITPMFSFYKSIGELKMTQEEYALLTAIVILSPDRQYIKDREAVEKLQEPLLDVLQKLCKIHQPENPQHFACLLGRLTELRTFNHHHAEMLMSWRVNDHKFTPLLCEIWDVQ
As to the kind of experiment: FXR engagement markers (C4, FGF19) in HBV patients. Type of series: in vivo. Particulars: all EYP001 doses; data not shown.
Text: as §1

For series [1] the following is noted: human, in vivo, 4 weeks. The method, then: Therefore, in a particular aspect, EYP001 is administered once a day.
A further series deals with HBV. To be noted: chronic hepatitis B patients; Erken et al 2018; cited from earlier work.
The mark [2] stands for this setting: ETV open-label 0.5 mg/day, end of treatment day 29.
Setting [3] is: EYP001a 1 × 100 mg/day monotherapy, day 29.
Setting [4] is: EYP001a 1 × 200 mg/day monotherapy, day 29.
Setting [5] is: EYP001a 1 × 400 mg/day monotherapy, day 29.
[6] abbreviates: EYP001a 2 × 200 mg/day monotherapy, day 29.

These results are taken from US20220313690A1, “SYNERGISTIC EFFECT OF EYP001 AND IFN FOR THE TREATMENT OF HBV INFECTION” (ENYO PHARMA, priority 2019, published 2022).

Regarding `C=C1[C@H](CO)[C@@H](O)C[C@@H]1n1cnc2c(=O)[nH]c(N)nc21` [ETV, entecavir, reference compound], the HBVpgRNA mean change with HBV pgRNA (setting [2]) is on record as −0.3 Log10 Copies mL. The HBcrAg mean change in the series with HBcrAg (setting [2]) was 0.03 Log10 IU mL.
`O=C(O)c1cc2c(Cl)c(N3CCN(S(=O)(=O)c4c(Cl)cccc4Cl)CC3)ccc2o1` [EYP001]: the HBVpgRNA mean change was 0.5 Log10 Copies mL in the series with HBV pgRNA (setting [3]), 0.4 Log10 Copies mL in the series with HBV pgRNA (setting [4]), 0.2 Log10 Copies mL with HBV pgRNA (setting [5]) and −0.1 Log10 Copies mL with HBV pgRNA (setting [6]). The HBcrAg mean change with HBcrAg (setting [3]) was −0.3 Log10 IU mL; in the series on HBcrAg (setting [4]) it was 0.2 Log10 IU mL; with HBcrAg (setting [5]), 0.02 Log10 IU mL; with HBcrAg (setting [6]), 1.2 Log10 IU mL. Besides, the “mean HBsAg decrease” value in the series on HBsAg is reported as −0.1 log 10 IU/mL. In the series with HBV replication, the “effect when used alone” value was “do not show a significant effect”. In addition, the “change in C4” value at FXR is given as “decreases”. For the same molecule, the “change in FGF19” value at FXR is given as “increases”. For the same molecule, the “pruritus, once a day versus twice a day” value in series [1] is given as “fewer pruritus occurs when EYP001 is administered once a day”. Further, in the series on HBV, the HBV viral load entry was “reduces HBV viral load”.
